According to US10704122B2, “Simple chemical method for the separation of rare earth metals” (THE TRUSTEES OF THE UNIVERSITY OF PENNSYLVANIA, priority 2014, dated 2020):

How the values were obtained:
[1] = Solubility in benzene quantified by 1H NMR of saturated C6D6 solutions; format: physicochemical; conditions: 1H NMR against ferrocene internal standard
Experimental: The absence of mixed-metal dimer formation prompted a search for conditions where the dimerization of Nd(TriNOx)THF could be exploited for solubility differences between the Nd and Dy species. […] These solubilities were quantified by ^1H NMR spectroscopy, where saturated C6D6 solutions of the complexes were prepared and measured against a ferrocene internal standard.

[2] = Air stability observation; format: physicochemical; conditions: solid and solution states

Row | Compound | solubility in benzene [1] [mM] | air stability [2]
1 | Nd[(2-(^tBuNOH)CH2—C6H4)3N]THF [Nd(TriNOx)THF] | 60 | –
2 | Dy[(2-(^tBuNOH)CH2—C6H4)3N]THF [Dy(TriNOx)THF] | 1.2 | –
3 | CC(C)(C)N(O)c1ccccc1CN(Cc1ccccc1N(O)C(C)(C)C)Cc1ccccc1N(O)C(C)(C)C [H3TriNOx, tris(2-tert-butylhydroxylaminato)benzylamine] | – | air stable in both the solid and solution states
